Measured values from patent US8288421B2, “Phenylaminopyridines” (Basilea Pharmaceutica AG, priority 2004, dated 2012).

Columns and labels:
[1] = system: DOHH2; test: Mitochondrial membrane potential (JC-1); type: cell-based; settings: DOHH2, 48 h read-out
Experimental: (§1) This assay is performed in 96 well tissue culture plates. Appropriate number of cells (adherent cells: 3-5*10^3, suspension cells: 8-10*10^3) are being seeded out in 80 μl complete medium. Adherent cells are incubated for 24 h for proper spreading out before addition of test compounds while suspension cells are immediately treated with test compounds after seeding out. The test compounds are added in 20 μal complete medium containing max 5% DMSO. […] The assay plates are then further incubated for 30 minutes and subsequently analyzed with a standard inverted fluorescence microscope by using the FITC and TRITC filters.
(§2) The scores A, B, C and D are explained at the end of the Table.

[2] = system: PBL; test: Hoechst 33342 nuclear staining; type: cell-based, human; settings: 48 h read-out
Experimental: as §1, with “μl” for “μal”, “DMSO. The final compound concentrations in the assays are in the range of 0.001 μM-10 μM.” for “DMSO.”, “microscope.” for “microscope by using the FITC and TRITC filters.”
(§3) The readout allows the determination of the fraction of apoptotic nuclei as well as other morphological criteria specific for apoptosis as a function of the treatment. The scores A, B, C and D are explained at the end of the Table.

[3] = system: HeLa; test: Hoechst 33342 nuclear staining; type: cell-based, human; settings: 48 h read-out
Experimental: as §1, with “μl” for “μal”, “DMSO. The final compound concentrations in the assays are in the range of 0.001 μM-10 μM.” for “DMSO.”, “microscope.” for “microscope by using the FITC and TRITC filters.”
as §3

[4] = system: Jurkat; test: Hoechst 33342 nuclear staining; type: cell-based, human; settings: 48 h read-out
Experimental: as §1, with “μl” for “μal”, “DMSO. The final compound concentrations in the assays are in the range of 0.001 μM-10 μM.” for “DMSO.”, “microscope.” for “microscope by using the FITC and TRITC filters.”
as §3

[5] = system: PBL; test: Mitochondrial membrane potential (JC-1); type: cell-based, human; settings: 48 h read-out
Experimental: as §1, §2

[6] = system: HeLa; test: Mitochondrial membrane potential (JC-1); type: cell-based, human; settings: 48 h read-out
Experimental: as §1, §2

[7] = system: Jurkat; test: Mitochondrial membrane potential (JC-1); type: cell-based, human; settings: 48 h read-out
Experimental: as §1, §2

[8] = system: MCF7; test: Mitochondrial membrane potential (JC-1); type: cell-based, human; settings: MCF7, 48 h read-out
Experimental: as §1, §2

[9] = system: MRC5; test: Hoechst 33342 nuclear staining; type: cell-based; settings: MRC5, 48 h read-out
Experimental: as §1, with “μl” for “μal”, “DMSO. The final compound concentrations in the assays are in the range of 0.001 μM-10 μM.” for “DMSO.”, “microscope.” for “microscope by using the FITC and TRITC filters.”
as §3

[10] = system: Jily; test: Hoechst 33342 nuclear staining; type: cell-based; settings: 48 h read-out
Experimental: as §1, with “μl” for “μal”, “DMSO. The final compound concentrations in the assays are in the range of 0.001 μM-10 μM.” for “DMSO.”, “microscope.” for “microscope by using the FITC and TRITC filters.”
as §3

[11] = system: HeLa; test: MTS proliferation assay; type: cell-based, human; settings: 72 h read-out
Experimental: (§4) The assay is performed in 96 well tissue culture plates. The cells (range: 1.5*10^3-10^4) are seeded out in 80 μl complete medium 24 h prior to compound treatment. The test compounds are added in 20 μl complete medium containing max 5% DMSO. The final compound concentrations in the assays are in the range of 0.001 μM-10 μM. The assay plates are incubated for 72 h at culture conditions. The MTS reagent is prepared according to the manufacturer's protocol (Promega G1111). 20 μl MTS reagent are added to each well, the assay plates are quickly spun and incubated for another 3 h at culture conditions. Subsequently, the plates are shortly shaked and absorption measured with a microplate-reader at 492 nm. The scores A, B, C and D are explained at the end of the Table.

[12] = system: Jurkat; test: MTS proliferation assay; type: cell-based, human; settings: 72 h read-out
Experimental: as §4

[13] = system: HT1080; test: MTS proliferation assay; type: cell-based, human; settings: HT1080, 72 h read-out
Experimental: as §4

[14] = system: MRC5; test: MTS proliferation assay; type: cell-based; settings: MRC5, 72 h read-out
Experimental: as §4

[15] = system: Jily; test: MTS proliferation assay; type: cell-based; settings: 72 h read-out
Experimental: as §4

SMILES | EC50 [1] | EC50 [2] | EC50 [3] | EC50 [4] | EC50 [5] | EC50 [6] | EC50 [7] | EC50 [8] | EC50 [9] | EC50 [10] | IC50 [11] | IC50 [12] | IC50 [13] | IC50 [14] | IC50 [15]
COc1ccc(Nc2cncc(-c3cccc(NC(=O)c4ccccc4)c3)c2)cc1OC [Example 29] | > 1000 nM | > 1000 nM | 100 to 1000 nM | 100 to 1000 nM | > 1000 nM | > 1000 nM | 100 to 1000 nM | > 1000 nM | > 1000 nM | 100 to 1000 nM | > 1000 nM | 100 to 1000 nM | > 1000 nM | > 1000 nM | 100 to 1000 nM
COc1ccc(Nc2cncc(-c3cccc(NC(C)=O)c3)c2)cc1 [Example 8] | 100 to 1000 nM | > 1000 nM | 100 to 1000 nM | 100 to 1000 nM | > 1000 nM | 100 to 1000 nM | 100 to 1000 nM | > 1000 nM | 100 to 1000 nM | 100 to 1000 nM | 100 to 1000 nM | 100 to 1000 nM | 100 to 1000 nM | > 1000 nM | 100 to 1000 nM
COc1ccc(Nc2cncc(-c3cccc(NC(=O)c4cccc(OC)c4)c3)c2)cc1 [Example 25] | > 1000 nM | > 1000 nM | > 1000 nM | 100 to 1000 nM | > 1000 nM | > 1000 nM | 100 to 1000 nM | > 1000 nM | > 1000 nM | > 1000 nM | > 1000 nM | 100 to 1000 nM | > 1000 nM | > 1000 nM | 100 to 1000 nM
COc1ccc(Nc2cncc(-c3cccc(NC(=O)c4cccnc4)c3)c2)cc1 [Example 13] | 100 to 1000 nM | > 1000 nM | 100 to 1000 nM | 100 to 1000 nM | > 1000 nM | 100 to 1000 nM | 10 to 100 nM | > 1000 nM | > 1000 nM | 100 to 1000 nM | 100 to 1000 nM | 10 to 100 nM | 100 to 1000 nM | 100 to 1000 nM | 10 to 100 nM
COc1ccc(Nc2cncc(-c3cccc(NC(=O)c4ccccc4)c3)c2)c(OC)c1 [Example 30] | > 1000 nM | > 1000 nM | > 1000 nM | 100 to 1000 nM | > 1000 nM | > 1000 nM | > 1000 nM | > 1000 nM | > 1000 nM | 100 to 1000 nM | > 1000 nM | 100 to 1000 nM | > 1000 nM | > 1000 nM | 100 to 1000 nM
COc1ccc(Nc2cncc(-c3cccc(NC(=O)c4ccco4)c3)c2)cc1 [Example 14] | 10 to 100 nM | > 1000 nM | 100 to 1000 nM | 10 to 100 nM | > 1000 nM | 100 to 1000 nM | 10 to 100 nM | > 1000 nM | 100 to 1000 nM | 10 to 100 nM | 100 to 1000 nM | 10 to 100 nM | 100 to 1000 nM | 100 to 1000 nM | 10 to 100 nM
COc1ccc(Nc2cncc(-c3cccc(NC(=O)Cc4ccccc4)c3)c2)cc1 [Example 15] | 100 to 1000 nM | > 1000 nM | 100 to 1000 nM | 100 to 1000 nM | > 1000 nM | 100 to 1000 nM | 10 to 100 nM | > 1000 nM | > 1000 nM | 100 to 1000 nM | 100 to 1000 nM | 100 to 1000 nM | 100 to 1000 nM | 100 to 1000 nM | 100 to 1000 nM
COc1ccc(Nc2cncc(-c3cccc(NC(=O)c4cccs4)c3)c2)cc1 [Example 22] | 10 to 100 nM | > 1000 nM | 10 to 100 nM | 10 to 100 nM | > 1000 nM | 10 to 100 nM | 10 to 100 nM | 100 to 1000 nM | 100 to 1000 nM | 10 to 100 nM | 10 to 100 nM | 10 to 100 nM | 10 to 100 nM | 100 to 1000 nM | 10 to 100 nM
COc1ccc(Nc2cncc(-c3cccc(NC(=O)c4cnccn4)c3)c2)cc1 [Example 12] | 10 to 100 nM | > 1000 nM | 10 to 100 nM | 10 to 100 nM | > 1000 nM | 100 to 1000 nM | 10 to 100 nM | 100 to 1000 nM | 100 to 1000 nM | 10 to 100 nM | 10 to 100 nM | < 10 nM | 10 to 100 nM | 100 to 1000 nM | 10 to 100 nM
COc1ccc(Nc2cncc(-c3cccc(NS(=O)(=O)c4ccccc4)c3)c2)cc1 [Example 23] | 100 to 1000 nM | > 1000 nM | 100 to 1000 nM | 100 to 1000 nM | > 1000 nM | 100 to 1000 nM | 100 to 1000 nM | 100 to 1000 nM | > 1000 nM | 100 to 1000 nM | 100 to 1000 nM | 100 to 1000 nM | 100 to 1000 nM | 100 to 1000 nM | 100 to 1000 nM
COc1ccc(Nc2cncc(-c3cccc(NC(=O)C(C)C)c3)c2)cc1 [Example 26] | 100 to 1000 nM | > 1000 nM | 100 to 1000 nM | 10 to 100 nM | > 1000 nM | > 1000 nM | 100 to 1000 nM | > 1000 nM | > 1000 nM | 100 to 1000 nM | 100 to 1000 nM | 10 to 100 nM | 100 to 1000 nM | 100 to 1000 nM | 10 to 100 nM
O=C(Nc1cccc(-c2cncc(Nc3ccc(OCc4ccccc4)cc3)c2)c1)c1ccccc1 [Example 27] | > 1000 nM | > 1000 nM | > 1000 nM | > 1000 nM | > 1000 nM | > 1000 nM | > 1000 nM | > 1000 nM | > 1000 nM | > 1000 nM | > 1000 nM | > 1000 nM | > 1000 nM | > 1000 nM | > 1000 nM
COc1ccc(Nc2cncc(-c3cccc(NC(=O)c4ccccn4)c3)c2)cc1 [Example 17] | 10 to 100 nM | > 1000 nM | 10 to 100 nM | 100 to 1000 nM | > 1000 nM | 10 to 100 nM | 10 to 100 nM | > 1000 nM | > 1000 nM | 10 to 100 nM | 10 to 100 nM | < 10 nM | 10 to 100 nM | 10 to 100 nM | 10 to 100 nM
COc1ccc(Nc2cncc(-c3cccc(NC(=O)c4ccc(OC)cc4)c3)c2)cc1 [Example 9] | 10 to 100 nM |  |  |  | > 1000 nM | 100 to 1000 nM | 10 to 100 nM | 100 to 1000 nM |  |  | 100 to 1000 nM | 100 to 1000 nM | 100 to 1000 nM | > 1000 nM | 100 to 1000 nM
CCC(=O)Nc1cccc(-c2cncc(Nc3ccc(OC)cc3)c2)c1 [Example 21] | 100 to 1000 nM | > 1000 nM | 100 to 1000 nM | 100 to 1000 nM | > 1000 nM | 100 to 1000 nM | 100 to 1000 nM | > 1000 nM | > 1000 nM | 100 to 1000 nM | 100 to 1000 nM | 10 to 100 nM | 100 to 1000 nM | 100 to 1000 nM | 100 to 1000 nM
CCOc1ccccc1C(=O)Nc1cccc(-c2cncc(Nc3ccc(OC)cc3)c2)c1 [Example 10] | 100 to 1000 nM | > 1000 nM | 10 to 100 nM | 10 to 100 nM | > 1000 nM | 100 to 1000 nM | 10 to 100 nM | 100 to 1000 nM | > 1000 nM | 100 to 1000 nM | 100 to 1000 nM | 10 to 100 nM | 10 to 100 nM | 100 to 1000 nM | 10 to 100 nM
COCC(=O)Nc1cccc(-c2cncc(Nc3ccc(OC)cc3)c2)c1 [Example 41] | 100 to 1000 nM | 100 to 1000 nM | 100 to 1000 nM | 100 to 1000 nM | 100 to 1000 nM | 100 to 1000 nM | 100 to 1000 nM | 100 to 1000 nM | > 1000 nM | 100 to 1000 nM |  |  |  |  | 
